PubChem BioAssay (NCI)
Values joined by “and” are separate entries in the source; they are usually repeats but may differ in a detail not shown here. Equal entries are not always repeated.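 Where inhibition never reached the appropriate level, the endpoint shown equals the highest concentration tested. Otherwise, values were interpolated linearly from a five-concentration, 48-hour dose response in 96-well plates. GI50 = concentration required for 50% inhibition of growth. TGI: concentration producing complete growth inhibition.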

Experiments:
Experiment in all cases: NCI tumour cell line growth inhibition, 48 h
[1] = system: MCF7 breast
[2] = system: MDA-N
[3] = system: BT-549 breast
[4] = system: HS 578T breast
[5] = system: MDA-MB-435
[6] = system: NCI-H522 lung
[7] = system: MDA-MB-231 breast
[8] = system: RXF 393 renal
[9] = system: DU-145 prostate
[10] = system: HOP-62 NSCLC
[11] = system: NCI/ADR-RES ovarian

Row | Compound | TGI [1] [µM] | TGI [2] [µM] | TGI [3] [µM] | TGI [4] [µM] | TGI [5] [µM] | TGI [6] [µM] | TGI [7] [µM] | TGI [8] [µM] | TGI [9] [µM] | TGI [10] [µM] | TGI [11] [µM] | GI50 [1] [µM] | GI50 [3] [µM] | GI50 [4] [µM] | GI50 [5] [µM] | GI50 [6] [µM] | GI50 [7] [µM] | GI50 [8] | GI50 [11] [µM] | GI50 [9] [µM]
1 | C#C[C@]1(O)[C@@H](CO)O[C@@H](n2ccc(N)nc2=O)[C@@H]1O | > 100 | 0.175 | 22.2 | > 40 | 0.219 | 0.0365 | > 100 | 2.12 | 6.22 | – | – | – | – | – | – | – | – | – | – | –
2 | CN1C(=O)CN2C(Cl)(Cl)C2(c2ccccc2)c2cc(Cl)ccc21 (stereo not given) | – | – | – | – | – | > 100 | – | > 100 | – | > 100 | – | – | – | – | – | – | – | – | – | –
3 | Cc1cc(C)c(NC(=O)/C=C/c2ccccc2)c(C)c1 | > 100 | – | > 100 | > 100 | > 100 | 61.8 | – | > 100 | – | > 100 | > 100 | – | – | – | – | – | – | – | – | –
4 | CC(=O)N=c1ccc2nc(N)nn(O)c-2c1 | > 100 | > 100 | > 100 | > 100 | > 100 | > 100 | > 100 | – | > 100 | > 100 | > 100 | – | – | – | – | – | – | – | – | –
5 | COc1cc2c(cc1O)Cc1c-2[n+](C)cc2cc(OC)c(OC)cc12 | > 100 | > 100 | > 57.9 | > 100 | > 100 | > 100 | > 100 | > 100 | > 100 | > 100 | > 100 | – | – | – | – | – | – | – | – | –
6 | COc1cc(/C=C/C(=O)c2ccc(F)cc2)ccc1OCCCCCOc1cc2c(cc1OC)C(=O)N1CCCC1C=N2 (stereo not given) | 0.0395 | – | 0.0974 | 0.223 | 0.145 | 0.249 | 1.96 | 0.283 | 0.0579 | – | 2.47 | < 0.01 | 0.0214 | 0.0298 | 0.0339 | 0.0318 | 0.282 | 0.11 µM | 0.239 | 0.0249
7 | NC(Cc1ccccc1)c1nn[nH]n1 (stereo not given) | > 100 | > 100 | > 100 | > 100 | > 100 | > 100 | > 100 | > 100 | > 100 | > 100 | > 100 | – | – | – | – | – | – | – | – | –
8 | O=[N+]([O-])c1ccc(CN=C2NNS(=O)(=O)c3ccccc32)cc1 | – | – | – | – | – | – | – | > 100 | – | – | – | – | – | – | – | – | – | – | – | –
9 | C/C(=N\O)C1CC2C=C(C#N)C1N(Cc1ccccc1)C2 (stereo not given) | > 100 | > 100 | – | > 100 | > 100 | – | > 100 | > 100 | > 100 | > 100 | > 100 | – | – | – | – | – | – | – | – | –
10 | CC(C)OC(=O)NNc1cccc(Cl)c1 | > 100 | > 100 | – | > 100 | > 100 | – | > 100 | > 100 | > 100 | > 100 | > 100 | – | – | – | – | – | – | – | – | –
11 | C=CC(=O)NCNC(=O)C=C | – | – | – | – | – | > 100 | – | – | – | > 100 | – | – | – | – | – | – | – | – | – | –
12 | OCC1OC(n2cnc3c(SCc4ccccc4)ncnc32)C(O)C1O (stereo not given) | > 100 | > 100 | > 100 | > 61.4 | > 100 | > 100 | > 100 | > 100 | > 100 | > 100 | > 100 | – | – | – | – | – | – | – | – | –
13 | [N-]=[N+]=CC(=O)OCC1NC(=O)C(COC(=O)C=[N+]=[N-])NC1=O (stereo not given) | > 100 | > 100 | – | > 100 | > 100 | – | > 100 | > 100 | > 100 | > 100 | > 100 | – | – | – | – | – | – | 15.8 µM and > 100 µM | – | –
14 | CCP(=O)(CC)C(Cl)(Cl)C(O)C(Cl)(Cl)Cl (stereo not given) | > 100 | > 100 | – | > 100 | – | > 100 | > 100 | – | > 100 | > 100 | > 100 | – | – | – | – | – | – | – | – | –
